Values joined by “and” are separate entries in the source; they are usually repeats but may differ in a detail not shown here. Equal values may be shown once.

We go through 45 compounds from BindingDB's records for patent US20250313563 (The Broad Institute, 2025).

The target of experiment [1] is Glycogen synthase kinase-3 beta (Homo sapiens, UniProt P49841). Nature of the experiment: TR-FRET Assay. The gist of the method: (§1)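 Compound was preincubated 30 min in assay buffer before the kinase reaction, which was quenched with EDTA. Phosphorylation was detected by TR-FRET after adding a solution of 40 nM streptavidin-d2 and 2 nM Tb-labelled anti-pSer641 antibody.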

Experiment [2] has as its target Glycogen synthase kinase-3 alpha (Homo sapiens, UniProt P49840). The experiment in a line: TR-FRET Assay. Summed up: as §1

Glycogen synthase kinase-3 alpha, sequence (P49840 whole entry): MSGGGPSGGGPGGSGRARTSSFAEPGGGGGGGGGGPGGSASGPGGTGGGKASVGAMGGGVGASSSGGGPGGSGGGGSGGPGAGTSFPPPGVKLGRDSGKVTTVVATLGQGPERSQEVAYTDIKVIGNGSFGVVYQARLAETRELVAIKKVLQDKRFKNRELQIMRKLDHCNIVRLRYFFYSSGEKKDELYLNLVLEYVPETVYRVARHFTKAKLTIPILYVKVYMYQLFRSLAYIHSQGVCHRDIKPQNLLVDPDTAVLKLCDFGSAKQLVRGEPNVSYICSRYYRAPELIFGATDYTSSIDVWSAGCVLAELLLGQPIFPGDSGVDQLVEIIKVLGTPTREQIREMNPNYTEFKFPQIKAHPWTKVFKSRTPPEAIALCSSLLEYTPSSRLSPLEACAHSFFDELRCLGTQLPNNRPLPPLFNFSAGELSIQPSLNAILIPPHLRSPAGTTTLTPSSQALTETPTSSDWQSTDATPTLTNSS
Glycogen synthase kinase-3 beta, sequence (P49841 whole entry): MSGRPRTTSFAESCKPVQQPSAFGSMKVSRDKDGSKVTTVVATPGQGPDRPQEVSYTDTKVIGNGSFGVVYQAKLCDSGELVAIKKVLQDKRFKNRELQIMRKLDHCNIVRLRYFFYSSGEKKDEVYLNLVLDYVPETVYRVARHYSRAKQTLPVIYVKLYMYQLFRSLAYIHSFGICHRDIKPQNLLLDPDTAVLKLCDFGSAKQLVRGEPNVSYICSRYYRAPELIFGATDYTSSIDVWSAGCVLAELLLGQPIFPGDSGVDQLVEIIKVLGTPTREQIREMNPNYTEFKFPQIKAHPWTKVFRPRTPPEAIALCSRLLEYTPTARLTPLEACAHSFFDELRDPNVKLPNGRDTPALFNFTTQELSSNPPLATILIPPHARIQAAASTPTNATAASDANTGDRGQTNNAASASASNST

A word on the IC50: it is the point on the concentration scale where inhibition reaches its midpoint. Low readings indicate greater potency in that assay, high ones weaker potency in that assay. On to `CC[C@@]1(c2cccc(-c3ccnc(C)c3)c2)C2=CN=NC2NC2=C1C(=O)C[C@@]1(CCOC1)C2` (stereo not given in full) [US20250313563, Compound 947411], for which the IC50 in experiment [1] and in experiment [2] was over 5000 nM in each case.
Turning to `CC[C@]1(c2cccc(-c3c(C)nn(C)c3C)c2)C2=CN=NC2NC2=C1C(=O)NC(C)(C)C2` (stereo not given in full) [US20250313563, Compound 947413], the IC50 in experiment [1] was over 5000 nM; in experiment [2], 1000 to 5000 nM.
Turning to `CC[C@@]1(c2cccc(-c3ccncc3C)c2)C2=C(CC(C)(C)NC2=O)NC2N=NC(C)=C21` (stereo not given in full) [US20250313563, Compound 947414], the IC50 in experiment [1] is < 100 nM and 1000 to 5000 nM; in experiment [2], < 100 nM and 100 to 1000 nM.
With `CC[C@]1(c2cccc(C(F)(F)F)c2)C2=CN=NC2NC2=C1C(=O)N(c1cccnc1)CC2` (stereo not given in full) [US20250313563, Compound 947432], the IC50 in experiment [1] was 100 to 1000 nM and > 5000 nM; in experiment [2] it was < 100 nM and 100 to 1000 nM.
Regarding `CCC1(c2cccc(C(C)c3ncccn3)c2)C2=CN=NC2NC2=C1C(=O)CC(C)(C)C2` (stereo not given) [US20250313563, Compound 947434], the IC50 in experiment [1] was 100 to 1000 nM; in experiment [2], under 100 nM.
The corresponding values for `Cc1ccc(S(=O)(=O)N2CCC3(CC2)C2=C(N=NC2)NC2=C3C(=O)CC(C)(C)C2)cc1` [US20250313563, Compound 947459] are 100 to 1000 nM and under 100 nM.
The corresponding values for `Cc1c(S(=O)(=O)N2CCC3(CC2)C2=C(N=NC2)NC2=C3C(=O)CC(C)(C)C2)cnn1C` [US20250313563, Compound 947460] are under 100 nM and under 100 nM.
Turning to `CC1(C)CC(=O)C2=C(C1)NC1=C(CN=N1)C21CCN(S(=O)(=O)c2ccn(-c3ccccc3)n2)CC1` [US20250313563, Compound 947461], the IC50 in experiment [1] and in experiment [2] was under 100 nM throughout.
Regarding `CC1(C)CC(=O)C2=C(C1)NC1=C(CN=N1)C21CCN(S(=O)(=O)C2=CN=C3CC=CC=C3C2)CC1` [US20250313563, Compound 947462], the IC50 was < 100 nM and 1000 to 5000 nM in experiment [1]; < 100 nM and 100 to 1000 nM in experiment [2].
For `CC1(C)CC(=O)C2=C(C1)NC1=C(CN=N1)C21CCN(S(=O)(=O)c2cnccc2C(F)(F)F)CC1` [US20250313563, Compound 947463], the IC50 was 100 to 1000 nM in experiment [1] and under 100 nM in experiment [2].
On to `CC1(C)CC(=O)C2=C(C1)NC1=C(CN=N1)C21CCN(S(=O)(=O)c2cccc3c2OCCO3)CC1` [US20250313563, Compound 947464], for which the IC50 is < 100 nM and 100 to 1000 nM in experiment [1]; under 100 nM in experiment [2].
On to `COc1cncc(S(=O)(=O)N2CCC3(CC2)C2=C(N=NC2)NC2=C3C(=O)CC(C)(C)C2)c1` [US20250313563, Compound 947465], for which the IC50 in experiment [1] and in experiment [2] was under 100 nM throughout.
Take `CC1(C)CC(=O)C2=C(C1)NC1=C(CN=N1)C21CCN(S(=O)(=O)c2cnnn2-c2ccccc2)CC1` [US20250313563, Compound 947466]: the values for the IC50 in experiment [1] and in experiment [2] were 100 to 1000 nM and under 100 nM, respectively.
The like results for `CC1(C)CC(=O)C2=C(C1)NC1N=NC=C1C21CCN(S(=O)(=O)c2cnc3n2CCC3)CC1` (stereo not given) [US20250313563, Compound 947467] were, in that order, 100 to 1000 nM and under 100 nM.
As for `Cc1ccc(S(=O)(=O)N2CCC3(CC2)C2=C(N=NC2)NC2=C3C(=O)CC(C)(C)C2)c(C)c1` [US20250313563, Compound 947468], the concentration for half-maximal inhibition (IC50) in experiment [1] and in experiment [2] was under 100 nM throughout.
As to `CC1(C)CC(=O)C2=C(C1)NC1=C(CN=N1)C21CCN(S(=O)(=O)c2cccc3ncccc23)CC1` [US20250313563, Compound 947469], the IC50 in experiment [1] and in experiment [2] was under 100 nM each time.
For `CC1(C)CC(=O)C2=C(C1)NC1=C(CN=N1)C21CCN(S(=O)(=O)c2cccc3c2CCCC3)CC1` [US20250313563, Compound 947470], the IC50 in experiment [1] and in experiment [2] was under 100 nM each time.
Regarding `Cc1ccc(C)c(S(=O)(=O)N2CCC3(CC2)C2=C(N=NC2)NC2=C3C(=O)CC(C)(C)C2)c1` [US20250313563, Compound 947471], the IC50 is 100 to 1000 nM in experiment [1] and under 100 nM in experiment [2].
The like results for `CC1(C)CC(=O)C2=C(C1)NC1=C(CN=N1)C21CCN(S(=O)(=O)c2cn3c(n2)CCCC3)CC1` [US20250313563, Compound 947472] were, in that order, 100 to 1000 nM and under 100 nM.
In the case of `CC(C)c1ccccc1S(=O)(=O)N1CCC2(CC1)C1=C(N=NC1)NC1=C2C(=O)CC(C)(C)C1` [US20250313563, Compound 947473], the IC50 in experiment [1] and in experiment [2] was 100 to 1000 nM in each case.
As for `CC1(C)CC(=O)C2=C(C1)NC1=C(CN=N1)C21CCN(S(=O)(=O)c2cnn3c2CCCC3)CC1` [US20250313563, Compound 947474], the IC50 in experiment [1] and in experiment [2] was under 100 nM each time.
For the compound `Cc1cc(S(=O)(=O)N2CCC3(CC2)C2=CN=NC2NC2=C3C(=O)CC(C)(C)C2)ccc1Cl` (stereo not given) [US20250313563, Compound 947475], the IC50 in experiment [1] and in experiment [2] was under 100 nM throughout.
For the compound `CC1(C)CC(=O)C2=C(C1)NC1=C(CN=N1)C21CCN(S(=O)(=O)C2=CC=C3CC=CC=C3N2)CC1` [US20250313563, Compound 947476], the IC50 in experiment [1] and in experiment [2] was under 100 nM each time.
Consider `COCCn1cc(S(=O)(=O)N2CCC3(CC2)C2=C(N=NC2)NC2=C3C(=O)CC(C)(C)C2)cn1` [US20250313563, Compound 947477], for which the IC50 in experiment [1] and in experiment [2] was under 100 nM throughout.
Take `COc1ccc(S(=O)(=O)N2CCC3(CC2)C2=C(N=NC2)NC2=C3C(=O)CC(C)(C)C2)cc1F` [US20250313563, Compound 947478]: the IC50 in experiment [1] and in experiment [2] was under 100 nM each time.
As to `CC1(C)CC(=O)C2=C(C1)NC1=C(CN=N1)C21CCN(S(=O)(=O)c2ccccc2C#N)CC1` [US20250313563, Compound 947479], the half-maximal inhibitory concentration (IC50) in experiment [1] and in experiment [2] was under 100 nM throughout.
With `CC1(C)CC(=O)C2=C(C1)NC1=C(CN=N1)C21CCN(S(=O)(=O)c2cnc3n2CCCC3)CC1` [US20250313563, Compound 947480], the IC50 in experiment [1] and in experiment [2] was under 100 nM in each case.
Regarding `Cc1cc(S(=O)(=O)N2CCC3(CC2)C2=C(N=NC2)NC2=C3C(=O)CC(C)(C)C2)ccn1` [US20250313563, Compound 947481], the IC50 in experiment [1] and in experiment [2] was under 100 nM each time.
`Cc1ccc(S(=O)(=O)N2CCC3(CC2)C2=C(N=NC2)NC2=C3C(=O)CC(C)(C)C2)cn1` [US20250313563, Compound 947482]: the IC50 in experiment [1] and in experiment [2] was under 100 nM in each case.
As to `CC1(C)CC(=O)C2=C(C1)NC1=C(CN=N1)C21CCN(S(=O)(=O)c2cnn3c2OCCC3)CC1` [US20250313563, Compound 947483], the IC50 in experiment [1] and in experiment [2] was under 100 nM throughout.
Consider `CC1(C)CC(=O)C2=C(C1)NC1=C(CN=N1)C21CCN(S(=O)(=O)c2c(F)cc(F)cc2F)CC1` [US20250313563, Compound 947484], for which the IC50 in experiment [1] and in experiment [2] was under 100 nM throughout.
Turning to `CC1(C)CC(=O)C2=C(C1)NC1=C(CN=N1)C21COC2(CN(C(=O)C(F)F)C2)C1` (stereo not given) [US20250313563, Compound 947485], the IC50 in experiment [1] and in experiment [2] was under 100 nM in each case.
Turning to `CC1(C)CC(=O)C2=C(C1)NC1=C(CN=N1)C21COC2(CN(C(=O)C3CCC(F)C3)C2)C1` (stereo not given) [US20250313563, Compound 947486], the IC50 in experiment [1] and in experiment [2] was under 100 nM each time.
In the case of `CC1(C)CC(=O)C2=C(C1)NC1=C(CN=N1)C21COC2(CN(C(=O)C3(F)CC3)C2)C1` (stereo not given) [US20250313563, Compound 947487], the concentration for half-maximal inhibition (IC50) in experiment [1] and in experiment [2] was under 100 nM throughout.
Take `CCC1(c2cccc(-c3ccnc(C(C)(C)C)c3)c2)C2=CN=NC2NC2=C1C(=O)CC(C)(C)C2` (stereo not given) [US20250313563, Compound 947490]: the IC50 in experiment [1] was 1000 to 5000 nM; in experiment [2] it was 100 to 1000 nM.
On to `CCC1(c2cccc(-c3c(C)cnn3C)c2)C2=CN=NC2NC2=C1C(=O)CC(C)(C)C2` (stereo not given) [US20250313563, Compound 947491], for which the IC50 in experiment [1] and in experiment [2] was under 100 nM each time.
`CCC1(c2cccc(-c3cnn(C)n3)c2)C2=CN=NC2NC2=C1C(=O)CC(C)(C)C2` (stereo not given) [US20250313563, Compound 947492]: the IC50 in experiment [1] is 1000 to 5000 nM; in experiment [2], under 100 nM.
The like results for `CCc1cc(-c2cccc(C3(CC)C4=CN=NC4NC4=C3C(=O)CC(C)(C)C4)c2)ccn1` (stereo not given) [US20250313563, Compound 947493] were, in that order, 100 to 1000 nM and under 100 nM.
For `CCC1(c2cccc(-c3cnn4c3CCC4)c2)C2=CN=NC2NC2=C1C(=O)CC(C)(C)C2` (stereo not given) [US20250313563, Compound 947494], the IC50 was 100 to 1000 nM in experiment [1] and under 100 nM in experiment [2].
The like results for `CC[C@]1(c2cccc(Cc3ncccn3)c2)C2=CN=NC2NC2=C1C(=O)CC(C)(C)C2` (stereo not given in full) [US20250313563, Compound 947498] were, in that order, under 100 nM and under 100 nM.
Turning to `CC[C@@]1(c2cccc(Cc3ncccn3)c2)C2=CN=NC2NC2=C1C(=O)CC(C)(C)C2` (stereo not given in full) [US20250313563, Compound 947499], the IC50 in experiment [1] was over 5000 nM; in experiment [2], 1000 to 5000 nM and > 5000 nM.
Regarding `CC[C@]1(c2cccc(-c3c(F)cncc3OC)c2)C2=CN=NC2NC2=C1C(=O)CC(C)(C)C2` (stereo not given in full) [US20250313563, Compound 947511], the IC50 in experiment [1] and in experiment [2] was under 100 nM throughout.
As to `CC[C@@]1(c2cccc(-c3c(F)cncc3OC)c2)C2=CN=NC2NC2=C1C(=O)CC(C)(C)C2` (stereo not given in full) [US20250313563, Compound 947512], the IC50 in experiment [1] was 100 to 1000 nM; in experiment [2] it was under 100 nM.
For the compound `CCC1(c2cccc(Cc3ncccc3C(F)(F)F)c2)C2=CN=NC2NC2=C1C(=O)CC(C)(C)C2` (stereo not given) [US20250313563, Compound 947548], the IC50 in experiment [1] and in experiment [2] was 100 to 1000 nM throughout.
On to `CCC1(c2cccc(S(=O)(=O)C3CC3)c2)C2=C(CC(C)(C)NC2=O)NC2N=NC(C)=C21` (stereo not given) [US20250313563, Compound 947562], for which the IC50 in experiment [1] and in experiment [2] was under 100 nM each time.
